Like-named read-outs stand apart in the source and are kept apart here.
Legend:
[1] = system: male Sprague-Dawley rats; experiment: Chronic Inescapable Shock in Rats (escape test); assay type: in vivo, rat; conditions: stressed rats
Procedure: The Chronic Inescapable Shock in Rats model, developed from the learned Helplessness paradigm, was used to investigate the acquisition of shock-induced escape deficits in rats in the absence and presence of SSRI±COX-2 inhibitors. The test was performed over a period of seven days as an adaptation of the methodology used previously by Gambarana, C., […]. & De Montis, M. G. (1995). Experiments were carried out on male Sprague-Dawley rats (Charles River, Como, Italy). Animals were kept in a controlled environment with a constant temperature of 22° C. and a 12 hour light/12 hour inverted dark cycle, with free access to food and water. The procedures used in this study for all animals were in strict accordance with the European legislation on the use and care of laboratory animals (CEE N° 86/609) and experiments were performed under red light. The experimental procedure consists of a pre-test session (exposure to an unavoidable stress of minimum intensity and duration required to induce a reliable behavioural modification) followed 24 hours later by an escape test (for the assessment of the induced behavioural modification). […]

[2] = molecular target: T1, human COX-1 (Homo sapiens, UniProt P23219); experiment: Inhibition of human COX-1 in stably transfected COS cells (PGE2 release); assay type: cell-based; conditions: COS cells stably transfected with human COX-1
T1 construct: expressed in transfected cells; host or cells: COS cells (stably transfected)
T1 sequence (P23219 24-599): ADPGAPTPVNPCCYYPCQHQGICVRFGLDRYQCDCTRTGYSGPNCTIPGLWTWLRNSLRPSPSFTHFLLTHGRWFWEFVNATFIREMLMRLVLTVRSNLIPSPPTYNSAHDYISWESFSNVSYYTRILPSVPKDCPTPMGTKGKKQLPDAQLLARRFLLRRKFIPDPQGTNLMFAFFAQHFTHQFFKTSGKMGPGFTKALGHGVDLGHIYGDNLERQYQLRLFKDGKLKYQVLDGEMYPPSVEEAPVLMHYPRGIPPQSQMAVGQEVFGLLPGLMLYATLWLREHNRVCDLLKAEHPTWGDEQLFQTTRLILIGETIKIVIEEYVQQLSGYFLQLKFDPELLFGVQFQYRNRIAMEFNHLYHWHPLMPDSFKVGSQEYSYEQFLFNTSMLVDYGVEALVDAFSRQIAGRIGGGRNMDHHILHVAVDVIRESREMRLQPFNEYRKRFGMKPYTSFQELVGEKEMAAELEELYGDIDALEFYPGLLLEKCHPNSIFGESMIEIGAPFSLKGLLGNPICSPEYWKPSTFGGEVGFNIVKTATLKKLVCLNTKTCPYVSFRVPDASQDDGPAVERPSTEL
Procedure: (§1) 24 Hours prior to experiment, COS cells were transferred from the 175 cm^2 flasks in which they were grown, onto 24-well cell culture plates using the following procedure. The incubation medium
(Dulbecco's modified eagles medium (DMEM) supplemented with heat-inactivated foetal calf serum (10% v/v), penicillin (100 lU/ml), streptomycin (100 μg/ml) and geneticin (600 μg/ml)) was removed from a flask of confluent cells (1 flask at confluency contains approximately 1×10^7 cells). 10 ml of phosphate buffered saline (PBS) was added to the flask to wash the cells. Having discarded the PBS, cells were then rinsed in 10 ml trypsin for 20 seconds, after which the trypsin was removed and the flask placed in an incubator (37°) for 1-2 minutes until cells became detached from the flask. The flask was then removed from the incubator and cells resuspended in 10 ml of fresh incubation medium. The contents of the flask was transferred to a 250 ml sterile container and the volume of incubation medium subsequently made up to 100 ml. […] The plates were then placed in an incubator (37° C., 95% air/5% CO2) overnight. If more than 1 flask of cells were required, the cells from the individual flasks were combined before being dispensed into the 24-well plates.
Following the overnight incubation, the incubation medium was completely removed from the 24-well cell culture plates and replaced with 250 μl fresh DMEM (37° C.). The test compounds were made up to 250× the required test concentration in DMSO and were added to the wells in a volume of 1 μl. Plates were then mixed gently by swirling and then placed in an incubator for 1 hour (37° C., 95% air/5% CO2). Following the incubation period, 10 μl of arachidonic acid (750 μM) was added to each well to give a final arachidonic acid concentration of 30 μM. Plates were then incubated for a further 15 minutes, after which the incubation medium was removed from each well of the plates and stored at −20° C., prior to determination of prostaglandin E2 (PGE2) levels using enzyme immunoassay. The inhibitory potency of the test compound was expressed as an IC50 value, which is defined as the concentration of the compound required to inhibit the PGE2 release from the cells by 50%. The selectivity ratio of inhibition of COX-1 versus COX-2 was calculated by comparing respective IC50 values.

[3] = molecular target: T2, human COX-2 (Homo sapiens, UniProt P35354); experiment: Inhibition of human COX-2 in stably transfected COS cells (PGE2 release); assay type: cell-based; conditions: COS cells stably transfected with human COX-2
T2 construct: expressed in transfected cells; host or cells: COS cells (stably transfected)
T2 sequence (P35354 18-604): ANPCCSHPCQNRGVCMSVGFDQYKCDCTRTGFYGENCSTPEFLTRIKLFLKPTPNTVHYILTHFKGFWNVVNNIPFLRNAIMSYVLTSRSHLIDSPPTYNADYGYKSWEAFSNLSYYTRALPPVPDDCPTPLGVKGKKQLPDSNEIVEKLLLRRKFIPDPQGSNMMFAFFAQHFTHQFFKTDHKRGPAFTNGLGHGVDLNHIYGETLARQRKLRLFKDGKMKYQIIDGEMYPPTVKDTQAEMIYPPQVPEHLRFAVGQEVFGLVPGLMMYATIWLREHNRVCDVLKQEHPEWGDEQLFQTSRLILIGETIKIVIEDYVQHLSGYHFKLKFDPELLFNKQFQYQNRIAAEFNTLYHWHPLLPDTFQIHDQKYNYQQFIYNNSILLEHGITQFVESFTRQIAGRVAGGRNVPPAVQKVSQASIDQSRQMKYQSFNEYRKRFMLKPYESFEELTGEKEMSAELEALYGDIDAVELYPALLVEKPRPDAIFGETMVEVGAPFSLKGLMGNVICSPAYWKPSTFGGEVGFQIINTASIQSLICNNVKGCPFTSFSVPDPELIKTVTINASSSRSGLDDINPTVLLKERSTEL
Procedure: as §1
(Dulbecco's modified eagles medium (DMEM) supplemented with heat-inactivated foetal calf serum (10% v/v), penicillin (100 lU/ml), streptomycin (100 μg/ml) and geneticin (600 μg/ml)) was removed from a flask of confluent cells (1 flask at confluency contains approximately 1×10^7 cells). 10 ml of phosphate buffered saline (PBS) was added to the flask to wash the cells. Having discarded the PBS, cells were then rinsed in 10 ml trypsin for 20 seconds, after which the trypsin was removed and the flask placed in an incubator (37°) for 1-2 minutes until cells became detached from the flask. The flask was then removed from the incubator and cells resuspended in 10 ml of fresh incubation medium. The contents of the flask was transferred to a 250 ml sterile container and the volume of incubation medium subsequently made up to 100 ml. […] If more than 1 flask of cells were required, the cells from the individual flasks were combined before being dispensed into the 24-well plates.
Following the overnight incubation, the incubation medium was completely removed from the 24-well cell culture plates and replaced with 250 μl fresh DMEM (37° C.). […]

[4] = molecular target: T3, microsomal h-COX2 (Homo sapiens, UniProt P35354); experiment: Microsomal assay, COX-2 (microsomal preparation from baculovirus infected SF9 cells); assay type: biochemical
T3 construct: made in house; host or cells: baculovirus infected SF9 cells (microsomal preparation)
T3 sequence (P35354 18-604): T2 sequence (P35354 18-604)
Procedure: Inhibitory activity against microsomal h-COX2 was assessed against a microsomal preparation from baculovirus infected SF9 cells. An aliquot of microsomal preparation was thawed slowly on ice and a 1/40,000 dilution prepared from it into the assay buffer (sterile water, degassed with argon containing 100 mM HEPES (pH 7.4), 10 mM EDTA (pH7.4), 1 mM phenol, 1 mM reduced glutathione, 20 mg/ml gelatin and 0.001 mM Hematin). Once diluted the enzyme solution was then sonicated for 5 seconds (Branson sonicator, setting 4, 1 cm tip) to ensure a homogeneous suspension. […] Plates were then mixed and incubated at room temperature for 1 hour. Following the incubation period, 40 μl of 0.5 μM arachidonic acid was added to each well to give a final concentration of 0.1 μM. Plates were then mixed and incubated for exactly 10 minutes (room temperature) prior to addition of 25 μl 1M HCl (hydrochloric acid) to each well to stop the reaction. 25 μl of 1M NaOH (sodium hydroxide) was then added to each well to neutralise the solution prior to determination of PGE2 levels by enzyme immunoassay (EIA).

[5] = microsomal assay, PGE2 by EIA, read-out: COX-2: IC50

Compound: Fc1ccc([C@@H]2CCNC[C@H]2COc2ccc3c(c2)OCO3)cc1 (relative stereo) [PAROXETINE, trans-(−)-3-[(1,3-benzodioxol-5-yloxy)methyl]-4-(4-fluorophenyl)piperidine]
- MEAN Number of escapes ([1]; 7 days of treatment p.o., escapes out of 30 consecutive trials on day 8): 3.8
- reversal of chronic escape deficit ([1]; after 7 days of treatment, day 8): lack of reversal of chronic inescapable shock

Compound: CS(=O)(=O)c1ccc(-c2c(-c3ccc(F)cc3)nn3nc(OC(F)F)ccc23)cc1 [2.1(v), 6-Difluoromethoxy-2-(4-fluoro-phenyl)-3-(4-methanesulfonyl-phenyl)-pyrazolo[1,5-b]pyridazine]
- IC50 [2]: > 100 µM

Compound: COc1ccc(-c2nn3ncccc3c2-c2ccc(S(C)(=O)=O)cc2)cc1 [2.2(ii), 3-(4-Methanesulfonyl-phenyl)-2-(4-methoxy-phenyl)-pyrazolo[1,5-b]pyridazine]
- IC50 [3]: < 0.01 µM

Compound: CCOc1ccc(-c2nn3ncccc3c2-c2ccc(S(C)(=O)=O)cc2)cc1 [2.3(ii), 2-(4-Ethoxy-phenyl)-3-(4-methanesulfonyl-phenyl)-pyrazolol[5-b]pyridazine]
- IC50 [2]: > 100 µM

Compound: CS(=O)(=O)c1ccc(-c2c(-c3cccc(F)c3)nn3nc(OC(F)F)ccc23)cc1 [2.7(viii), 6-Difluoromethoxy-2-(3-fluoro-phenyl)-3-(4-methanesulfonyl-phenyl)-pyrazolo[1,5-b]pyridazine]
- IC50 [2]: > 55.2 µM

Compound: CS(=O)(=O)c1ccc(-c2c(-c3ccc(OC(F)F)cc3)nn3ncccc23)cc1 [Compound 2.5, 2-(4-Difluoromethoxy-phenyl)-3-(4-methanesulfonyl-phenyl)-pyrazolo[1,5-b]pyridazine]
- IC50 [2]: > 100 µM

Compound: Cc1ccc(Oc2nc(-c3ccc(S(C)(=O)=O)cc3)cc(C(F)(F)F)n2)cc1 [Example 1.6]
- IC50 [4, 5]: < 0.01 µM

Compound: CS(=O)(=O)c1ccc(-c2cc(C(F)(F)F)nc(Oc3cncc(Cl)c3)n2)cc1 [Example 1.7]
- IC50 [4, 5]: < 0.01 µM

Compound: CS(=O)(=O)c1ccc(-c2cc(C(F)(F)F)cc(OCc3ccccn3)n2)cc1 [Example 3.2, 2-[4-(methylsulfonyl)phenyl]-6-[(2-pyridinylmethyl)oxy]-4-(trifluoromethyl)pyridine]
- IC50 ([4]; stated in text after the microsomal assay table, read-out: IC50 values for inhibition of COX-2): ≤ 0.5 µM

Reference: patent US20070270428A1, “Use of Cyclooxygenase-2 Inhibitors for the Treatment of Depressive Disorders” (priority 2003, published 2007)
